This assay concerns GR. Briefly: GR transactivation, MMTV (pHHLuc) luciferase reporter in AD293 cells. The assay is classed as cell-based. To be noted: Dexamethasone 1 nM, 10 nM, 100 nM and 1 μM with or without Concanamycin A 1 nM, FIG. 2. On the procedure:
AD293 cells in 24 wells plate were transfected with 0.1 ng GR, 100 ng pHHLuc reporter together with 10 ng Renilla control plasmids in each well, then induced by EtOH (vehicle control), Dexamethasone (1 nM, 10 nM, 100 nM and 1 μM), with or without Bafilomycin A1 (100 nM). Dual-Luciferase values were measured by Promega standard manual.
AD293 cells in 24 wells plate were transfected with 0.1 ng GR, 100 ng pHHLuc reporter together with 10 ng Renilla control plasmids in each well, then induced by EtOH (vehicle control), Dexamethasone (1 nM, 10 nM, 100 nM and 1 μM), with or without Concanamycin A (1 nM). Dual-Luciferase values were measured by Promega standard manual.
FIG. 8 is a graph showing a summary of V-ATPase inhibitors in enhancing GR-Dex activity on MMTV (pHHLuc) reporter in AD293 cells. AD293 cells in 24 wells plate were transfected with 0.1 ng GR, 100 ng pHHLuc reporter together with 10 ng Renilla control plasmids in each well, then induce by EtOH (vehicle control), Dexamethasone (10 nM), with different V-ATPase inhibitors (Bafilomycin A1 100 nM; Concanamycin A 1 nM; Lobatamide A 100 nM) or vehicle control. Dual-Luciferase values were measured by Promega standard manual.
In general terms: Reporter assays use an easily measured gene product as a stand-in for the process of interest.

In the case of `C/C=C/C1OC(O)(C(C)C(O)C(C)C2OC(=O)/C(OC)=C/C(C)=C/C(C)C(O)C(CC)C(O)C(C)C/C(C)=C/C=C/C2OC)CC(OC2CC(O)C(OC(N)=O)C(C)O2)C1C` (stereo not shown) [Concanamycin A, 6-(2-(4-((4E,6E,14E,16Z)-11-ethyl-10,12-dihydroxy-3,17-dimethoxy-7,9,13,15-tetramethyl-18-oxooxacyclooctadeca-4,6,14,16-tetraen-2-yl)-3-hydroxypentan-2-yl)-2-hydroxy-5-methyl-6-((E)-prop-1-enyl)tetrahydro-2H-pyran-4-yloxy)-4-hydroxy-2-methyltetrahydro-2H-pyran-3-yl carbamate], the “GR-dex dose-response of induction on MMTV (pHHLuc) reporter (GR transactivation)” value is recorded as “synergizes with Dex”.

Values taken from US20110237497A1, “COMPOSITIONS OF A V-ATPASE INHIBITOR IN COMBINATION WITH A GLUCOCORTICOID RECEPTOR LIGAND AND METHODS OF USE” (priority 2009, published 2011).
